The test system of one assay is tumor cells. Conditions: administration of AMG487; Pradelli, E. et al. Int J Cancer 2009, 125, 2586; cited from earlier work.
For another assay, the target named is CXCR3 (Homo sapiens (Human), UniProt P49682). Kind of assay: Receptor internalization assay. The note with it: read-out: Internalization IC50. In kind it is cell-based. In short, it runs like this: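 In human whole blood, compounds were incubated with CXCL10 (9 nM final) for 30 min at 37 °C to drive receptor internalization, then stained with anti-CXCR3/CD3 antibodies and lysed of red cells. Flow cytometry measured mean surface CXCR3 fluorescence on CD3+ cells, and IC50 came from single-site dose-response fits.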

The target of a further assay is human CXCR3A (Homo sapiens (Human), UniProt P49682). Kind of assay: FLIPR assay. The format is cell-based. The note with it: CHO-K1 cells expressing the human CXCR3A coupled to Galpha(16); CXCL10 agonist 20 nM; Fluo-4-AM fluorescence; mean values if determined several times. In short, it runs like this:
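CHO-K1 cells expressing CXCR3A coupled to Gα16 were loaded with Fluo-4-AM for 1 h in Hepes-buffered HBSS, pH 7.4, with 5 mM probenecid. Compound dilutions were added on the FLIPR, followed by CXCL10 (added as a 20 nM solution). Baseline-subtracted peak fluorescence was fitted to a single-site curve for IC50.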

[1] abbreviates: human whole blood, final CXCL10 concentration 9 nM, 30 min 37° C., CXCR3 cell surface expression on CD3 positive cells, flow cytometer.

Where two headings read alike, the source gives them in different places.

Sequence of CXCR3 (P49682 whole entry): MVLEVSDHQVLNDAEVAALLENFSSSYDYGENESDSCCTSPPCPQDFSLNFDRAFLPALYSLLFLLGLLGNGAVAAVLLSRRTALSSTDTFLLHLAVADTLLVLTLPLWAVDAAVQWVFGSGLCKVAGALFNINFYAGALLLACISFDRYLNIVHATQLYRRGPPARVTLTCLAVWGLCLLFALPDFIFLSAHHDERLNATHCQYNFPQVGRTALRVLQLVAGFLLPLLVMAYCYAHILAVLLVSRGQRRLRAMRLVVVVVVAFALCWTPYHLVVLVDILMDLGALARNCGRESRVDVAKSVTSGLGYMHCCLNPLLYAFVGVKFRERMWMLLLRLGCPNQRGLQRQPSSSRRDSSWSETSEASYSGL
Sequence of human CXCR3A (P49682 whole entry): as above

Regarding `CCOc1ccc(-n2c([C@@H](C)N(Cc3cccnc3)C(=O)Cc3ccc(OC(F)(F)F)cc3)nc3ncccc3c2=O)cc1` [AMG487], the “metastasis of tumor cells to the lungs” value in the assay on tumor cells is “could limit the metastasis of tumor cells to the lungs”.

Broadly, the IC50 is the concentration that gives 50% inhibition. In the case of `Cc1nc(C)n(CC(=O)N2CCN(c3sc(C(F)(F)F)nc3-c3nc4ccc(N5CCOCC5)cc4[nH]3)C[C@H]2C)n1` [Example 233, 2-(3,5-Dimethyl-[1,2,4]triazol-1-yl)-1-{(R)-2-methyl-4-[4-(6-morpholin-4-yl-1H-benzoimidazol-2-yl)-2-trifluoromethyl-thiazol-5-yl]-piperazin-1-yl}-ethanone], the IC50 is 376 nM at CXCR3 (setting [1]) and 6 nM on human CXCR3A.

For the compound `Cc1nc(C)n(CC(=O)N2CCN(c3sc(C(F)(F)F)nc3-c3nc4ccc(-n5cncn5)cc4[nH]3)C[C@H]2C)n1` [Example 234, 2-(3,5-Dimethyl-[1,2,4]triazol-1-yl)-1-{(R)-2-methyl-4-[4-(6-[1,2,4]triazol-1-yl-1H-benzoimidazol-2-yl)-2-trifluoromethyl-thiazol-5-yl]-piperazin-1-yl}-ethanone], the half-maximal inhibitory concentration (IC50) on CXCR3 (setting [1]) worked out at 822 nM; on human CXCR3A it was 6 nM.

Take `Cc1nc(C)n(CC(=O)N2CCN(c3sc(C(F)(F)F)nc3-c3nc4ccc(-c5noc(C)n5)cc4[nH]3)C[C@H]2C)n1` [Example 236, 2-(3,5-Dimethyl-[1,2,4]triazol-1-yl)-1-((R)-2-methyl-4-{4-[6-(5-methyl-[1,2,4]oxadiazol-3-yl)-1H-benzoimidazol-2-yl]-2-trifluoromethyl-thiazol-5-yl}-piperazin-1-yl)-ethanone]: the IC50 at CXCR3 (setting [1]) came out at 265 nM; at human CXCR3A, 3 nM.

Turning to `Cc1nc(C)n(CC(=O)N2CCN(c3sc(C(F)(F)F)nc3-c3nc4ccc(C5CCN(C)CC5)cc4[nH]3)C[C@H]2C)n1` [Example 237, 2-(3,5-Dimethyl-[1,2,4]triazol-1-yl)-1-((R)-2-methyl-4-{4-[6-(1-methyl-piperidin-4-yl)-1H-benzoimidazol-2-yl]-2-trifluoromethyl-thiazol-5-yl}-piperazin-1-yl)-ethanone], the IC50 stood at 84 nM on CXCR3 and 2 nM on human CXCR3A.

As for `Cc1nc(C)n(CC(=O)N2CCN(c3sc(C(F)(F)F)nc3-c3nc4ccc(C5CCOCC5)cc4[nH]3)C[C@H]2C)n1` [Example 238, 2-(3,5-Dimethyl-[1,2,4]triazol-1-yl)-1-((R)-2-methyl-4-{4-[6-(tetrahydro-pyran-4-yl)-1H-benzoimidazol-2-yl]-2-trifluoromethyl-thiazol-5-yl}-piperazin-1-yl)-ethanone], the concentration for half-maximal inhibition (IC50) on CXCR3 (setting [1]) is 103 nM; on human CXCR3A, 1 nM.

In the case of `Cc1nc(C)n(CC(=O)N2CCN(c3sc(C(F)(F)F)nc3-c3nc4cc(CCN)ccc4[nH]3)C[C@H]2C)n1` [Example 239, 1-((R)-4-{4-[5-(2-Amino-ethyl)-1H-benzoimidazol-2-yl]-2-trifluoromethyl-thiazol-5-yl}-2-methyl-piperazin-1-yl)-2-(3,5-dimethyl-[1,2,4]triazol-1-yl)-ethanone], the values for the IC50 at CXCR3 (setting [1]) and at human CXCR3A were 324 nM and 0.1 nM, respectively.

Turning to `Cc1nc(C)n(CC(=O)N2CCN(c3sc(C(F)(F)F)nc3-c3nc4ccc(C5CCNCC5)cc4[nH]3)C[C@H]2C)n1` [Example 240, 2-(3,5-Dimethyl-[1,2,4]triazol-1-yl)-1-{(R)-2-methyl-4-[4-(6-piperidin-4-yl-1H-benzoimidazol-2-yl)-2-trifluoromethyl-thiazol-5-yl]-piperazin-1-yl}-ethanone], the half-maximal inhibitory concentration (IC50) at CXCR3 (setting [1]) was determined as 222 nM; on human CXCR3A, 2 nM.

With `Cc1nc(C)n(CC(=O)N2CCN(c3sc(C(F)(F)F)nc3-c3nc4cc(OC(F)(F)F)ccc4[nH]3)C[C@H]2C)n1` [Example 241, 2-(3,5-Dimethyl-[1,2,4]triazol-1-yl)-1-{(R)-2-methyl-4-[4-(5-trifluoromethoxy-1H-benzoimidazol-2-yl)-2-trifluoromethyl-thiazol-5-yl]-piperazin-1-yl}-ethanone], the IC50 was 169 nM on CXCR3 (setting [1]) and 2 nM at human CXCR3A.

In the case of `Cc1nc(C)n(CC(=O)N2CCN(c3sc(C(F)(F)F)nc3-c3nc4ccc(OC5CNC5)cc4[nH]3)C[C@H]2C)n1` [Example 242, 1-((R)-4-{4-[6-(Azetidin-3-yloxy)-1H-benzoimidazol-2-yl]-2-trifluoromethyl-thiazol-5-yl}-2-methyl-piperazin-1-yl)-2-(3,5-dimethyl-[1,2,4]triazol-1-yl)-ethanone], the half-maximal inhibitory concentration (IC50) was found to be 438 nM at CXCR3 (setting [1]) and 4 nM at human CXCR3A.

As to `Cc1nc(C)n(CC(=O)N2CCN(c3sc(C(F)(F)F)nc3-c3nc4ccccc4[nH]3)C[C@@H]2C)n1` [Example 243, 1-{(S)-4-[4-(1H-Benzoimidazol-2-yl)-2-trifluoromethyl-thiazol-5-yl]-2-methyl-piperazin-1-yl}-2-(3,5-dimethyl-[1,2,4]triazol-1-yl)-ethanone], the IC50 at CXCR3 (setting [1]) is 1120 nM; on human CXCR3A, 3 nM.

On to `Cc1nc(C)n(CC(=O)N2CCN(c3sc(C(F)(F)F)nc3-c3nc4ccc(CCN5CCCC5)cc4[nH]3)C[C@H]2C)n1` [Example 244, 2-(3,5-Dimethyl-[1,2,4]triazol-1-yl)-1-((R)-2-methyl-4-{4-[6-(2-pyrrolidin-1-yl-ethyl)-1H-benzoimidazol-2-yl]-2-trifluoromethyl-thiazol-5-yl}-piperazin-1-yl)-ethanone], for which the IC50 on CXCR3 (setting [1]) was 531 nM; on human CXCR3A, 23 nM.

These data come from US9266876B2 (Actelion Pharmaceuticals Ltd., priority 2012, dated 2016).
